Experimental data: ChEMBL document CHEMBL1201862, “PubChem BioAssay data set” (2004)
The source made the active and inactive calls.

Legend:
[1] = molecular target: CAAX prenyl protease 2 (Homo sapiens, UniProt Q9Y256); experiment: inhibition of Ras-converting CAAX protease Rce1 – biochemical, yeast membranes, quenched-peptide fluorescence, cherry-pick, dose response (AID 588849)
[2] = molecular target: T1, V-type proton ATPase subunit c' (Saccharomyces cerevisiae S288c, UniProt P32842); experiment: Dose Response with BCECF Assay for V-ATPase inhibitors that increase vacuolar pH, Powder Set 1.; type: functional; details: read-out: EC50_MICROM
[3] = molecular target: T1, V-type proton ATPase subunit c'; experiment: Dose Response of Small Molecules that Regulate V-ATPase Proton Transport in Yeast using pHLuorin, Powder Set1.; type: functional; details: read-out: EC50_MICROM
[4] = molecular target: Phospholipase D1 (Homo sapiens, UniProt Q13393); experiment: cellular phospholipase D1 inhibition IC50 – cell-based, dose response (AID 602151); type: functional;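 note: cellular PLD1 assay in Calu-1 cells stimulated with PMA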
[5] = molecular target: Phospholipase D2 (Homo sapiens, UniProt O14939); experiment: cellular phospholipase D2 inhibition IC50 – cell-based, dose response (AID 602147); type: functional;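 note: cellular assay in HEK293 cells overexpressing GFP-tagged PLD2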
[6] = molecular target: Mitogen-activated protein kinase kinase kinase kinase 4 (Homo sapiens, UniProt O95819); type: functional
[7] = molecular target: Cell division cycle 7-related protein kinase (Homo sapiens, UniProt O00311); type: functional;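 note: value obtained from a kinome-wide kinase panel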
[8] = molecular target: Homeodomain-interacting protein kinase 2 (Homo sapiens, UniProt Q9H2X6); type: functional;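 note: measured within a kinome-wide kinase profiling panel, HIPK2 being one panel member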
[9] = molecular target: cAMP-dependent protein kinase catalytic subunit alpha (Homo sapiens, UniProt P17612); type: functional
[10] = molecular target: Glycogen synthase kinase-3 beta (Homo sapiens, UniProt P49841); type: functional;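 note: value comes from a broad kinome profiling panel, with GSK3B as the panel member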
[11] = molecular target: Dual specificity protein kinase CLK4 (Homo sapiens, UniProt Q9HAZ1); type: functional
[12] = molecular target: Interleukin-1 receptor-associated kinase 4 (Homo sapiens, UniProt Q9NWZ3); type: functional
[13] = molecular target: Serine/threonine-protein kinase pim-1 (Homo sapiens, UniProt P11309); type: functional
[14] = loss of viability in HepG2 cells – cell-based, CellTiter-Glo, cherry-picked, cytotoxicity control for Shn3 inhibitor project, dose response (AID 624134); type: functional
[15] = molecular target: T2, Microphthalmia-associated transcription factor (Homo sapiens, UniProt O75030); experiment: reducers of TRPM1 reporter luminescence, concentration series – cell-based, SK-MEL-5, cherry-picked, set 3, MITF inhibitor project, dose response (AID 493073); type: functional;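 note: SK-MEL-5 melanoma cells with luciferase driven by the MITF target TRPM1 promoter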
T2 sequence (O75030 whole entry): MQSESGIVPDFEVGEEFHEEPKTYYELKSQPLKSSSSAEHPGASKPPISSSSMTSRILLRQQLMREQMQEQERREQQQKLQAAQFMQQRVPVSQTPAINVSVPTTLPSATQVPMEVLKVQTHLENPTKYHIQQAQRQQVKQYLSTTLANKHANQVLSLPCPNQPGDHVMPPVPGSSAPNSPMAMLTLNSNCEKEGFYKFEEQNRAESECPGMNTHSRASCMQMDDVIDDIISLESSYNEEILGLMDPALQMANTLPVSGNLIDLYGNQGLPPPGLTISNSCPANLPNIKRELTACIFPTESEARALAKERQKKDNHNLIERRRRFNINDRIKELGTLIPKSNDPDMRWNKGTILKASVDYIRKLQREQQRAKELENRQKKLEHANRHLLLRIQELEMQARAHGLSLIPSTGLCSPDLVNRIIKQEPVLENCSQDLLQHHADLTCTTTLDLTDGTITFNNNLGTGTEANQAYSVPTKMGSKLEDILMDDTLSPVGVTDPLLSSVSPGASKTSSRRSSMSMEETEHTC

[16] = Luminescence Cell-Based Dose Retest to Confirm Inhibitors of Cancer Stem Cells. [Related pubchem assays (depositor defined):AID2717, AID2721]; type: functional; details: Homo sapiens
[17] = non-specific 3'UTR reporter inhibition in Clone20-Shn3RL – cell-based, Renilla luciferase, cherry-picked, counter-screen for Shn3 inhibitor project, dose response (AID 624133); type: functional
[18] = tested on: A-375; experiment: proliferation inhibition in MITF-low A375 cells – cell-based, cherry-pick samples, set 2, counter-screen for MITF modulator project, dose response (AID 540335); type: functional; details: Homo sapiens
[19] = Trypanosoma cruzi growth suppression in host cells – NIH3T3 host cells, beta-gal luminescence, confirmation (AID 2044); type: functional, cell-based;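 note: intracellular parasites grown in NIH/3T3 mouse fibroblasts as host cells; luminescent beta-galactosidase reporter signal from transgenic T. cruzi replicating inside host cells; inhibitors lower the luminescence signal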
[20] = NIH3T3 cell viability loss – ATP luminescence, mouse fibroblasts, counter-screen, dose response (AID 2010); type: functional, cell-based;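 note: cells exposed to compound for about 90 hours before reading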
[21] = reduction of Shn3 3'UTR-driven luciferase in osteoblasts – cell-based, Clone20 osteoblasts, firefly luciferase, cherry-picked, dose response (AID 624132); type: functional;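 note: firefly luciferase luminescence from reporter carrying the Shn3 3'UTR in osteoblasts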
[22] = tested on: A-375; experiment: MITF: Counter assay: A375 proliferation Measured in Cell-Based System Using Plate Reader - 2084-03_Inhibitor_Dose_DryPowder_Activity. [Related pubchem assays (depositor defined):AID488944]; type: functional; details: Homo sapiens
[23] = molecular target: Dual specificity protein phosphatase 3 (Homo sapiens, UniProt P51452); experiment: SAR VHR1 Fluorescent Assay for In Vitro dose response studies Set 3. [Related pubchem assays (depositor defined):AID1654, AID1661, AID1878]; type: functional
[24] = molecular target: Cytochrome P450 3A4 (Homo sapiens, UniProt P08684);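 note: CYP3A4 tested as one member of a cytochrome P450 panel screen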
[25] = molecular target: T3, RNA-binding protein pos-1 (Caenorhabditis elegans, UniProt G5EF15); experiment: disruptors of C. elegans POS-1 RNA interaction – biochemical, fluorescence polarization, dose response (AID 1964);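 note: purified POS-1 fused to maltose binding protein made in E. coli; potency of compounds blocking POS-1 binding to fluorescent RNA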
T3 sequence (G5EF15 whole entry): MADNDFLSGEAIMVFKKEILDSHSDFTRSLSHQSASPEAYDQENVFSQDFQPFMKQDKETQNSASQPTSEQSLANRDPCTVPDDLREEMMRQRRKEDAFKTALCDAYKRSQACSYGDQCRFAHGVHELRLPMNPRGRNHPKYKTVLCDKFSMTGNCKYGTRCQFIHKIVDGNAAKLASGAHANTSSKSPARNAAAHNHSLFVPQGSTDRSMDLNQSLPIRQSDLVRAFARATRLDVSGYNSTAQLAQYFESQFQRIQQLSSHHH

[26] = molecular target: Corticotropin-releasing factor receptor 2/Corticotropin-releasing factor-binding protein (Homo sapiens, UniProt Q13324+P24387); experiment: activators of CRF receptor 2 with binding protein – uHTS hits, confirmation (AID 602473); type: functional; details: read-out: EC50_Mean
[27] = molecular target: T4, Zinc finger protein mex-5 (Caenorhabditis elegans, UniProt Q9XUB2); experiment: potency of MEX-5 RNA-binding blockers – biochemical, C. elegans, fluorescence polarization, dose response (AID 1960)
T4 sequence (Q9XUB2 whole entry): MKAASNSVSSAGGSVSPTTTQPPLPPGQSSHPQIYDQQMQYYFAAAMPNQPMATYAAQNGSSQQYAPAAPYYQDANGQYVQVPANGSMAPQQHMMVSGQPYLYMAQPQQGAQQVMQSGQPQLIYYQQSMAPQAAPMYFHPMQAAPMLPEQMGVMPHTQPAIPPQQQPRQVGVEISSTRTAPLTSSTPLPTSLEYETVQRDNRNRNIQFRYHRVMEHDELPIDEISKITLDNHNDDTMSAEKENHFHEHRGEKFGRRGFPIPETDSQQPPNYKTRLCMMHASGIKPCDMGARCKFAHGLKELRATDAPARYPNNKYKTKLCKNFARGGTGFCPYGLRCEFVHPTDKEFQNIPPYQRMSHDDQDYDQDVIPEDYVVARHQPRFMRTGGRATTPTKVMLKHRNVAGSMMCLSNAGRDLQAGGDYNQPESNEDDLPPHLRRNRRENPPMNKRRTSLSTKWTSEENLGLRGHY

[28] = molecular target: Cytochrome P450 2C9 (Homo sapiens, UniProt P11712)

T1 sequence (P32842 whole entry): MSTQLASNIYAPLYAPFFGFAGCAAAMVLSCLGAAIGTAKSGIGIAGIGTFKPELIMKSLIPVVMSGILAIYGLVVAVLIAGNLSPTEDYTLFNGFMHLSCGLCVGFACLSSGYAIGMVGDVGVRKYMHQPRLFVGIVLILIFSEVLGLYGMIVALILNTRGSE
Sequence of Cell division cycle 7-related protein kinase (O00311 whole entry): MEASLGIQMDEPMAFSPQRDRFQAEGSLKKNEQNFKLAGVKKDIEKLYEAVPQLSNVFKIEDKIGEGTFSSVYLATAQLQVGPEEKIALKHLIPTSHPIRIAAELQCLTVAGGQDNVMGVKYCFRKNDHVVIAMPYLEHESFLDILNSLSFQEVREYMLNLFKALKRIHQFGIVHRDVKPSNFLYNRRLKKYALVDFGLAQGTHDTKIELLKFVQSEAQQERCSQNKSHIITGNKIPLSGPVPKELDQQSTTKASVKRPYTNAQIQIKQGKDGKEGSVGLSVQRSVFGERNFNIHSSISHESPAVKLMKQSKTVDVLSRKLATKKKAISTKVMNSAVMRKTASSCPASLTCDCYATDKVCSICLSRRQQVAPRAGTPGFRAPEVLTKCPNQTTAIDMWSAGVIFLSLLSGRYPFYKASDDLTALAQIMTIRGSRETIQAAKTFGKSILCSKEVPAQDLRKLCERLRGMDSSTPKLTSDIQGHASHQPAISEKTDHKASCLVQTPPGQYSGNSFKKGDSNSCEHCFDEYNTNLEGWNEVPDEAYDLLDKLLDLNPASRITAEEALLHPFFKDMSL
Sequence of Corticotropin-releasing factor receptor 2/Corticotropin-releasing factor-binding protein (Q13324 whole entry): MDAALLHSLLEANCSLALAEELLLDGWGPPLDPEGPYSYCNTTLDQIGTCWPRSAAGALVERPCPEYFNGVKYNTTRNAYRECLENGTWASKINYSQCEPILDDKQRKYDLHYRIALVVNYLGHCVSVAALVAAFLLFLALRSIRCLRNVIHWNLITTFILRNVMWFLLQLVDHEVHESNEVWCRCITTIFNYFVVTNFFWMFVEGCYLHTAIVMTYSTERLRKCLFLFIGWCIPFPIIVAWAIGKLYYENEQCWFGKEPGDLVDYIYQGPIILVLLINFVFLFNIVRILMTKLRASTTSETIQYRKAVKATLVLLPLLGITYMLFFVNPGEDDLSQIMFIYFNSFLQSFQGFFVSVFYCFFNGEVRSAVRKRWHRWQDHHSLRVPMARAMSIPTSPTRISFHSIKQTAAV
Sequence of Corticotropin-releasing factor receptor 2/Corticotropin-releasing factor-binding protein (P24387 whole entry): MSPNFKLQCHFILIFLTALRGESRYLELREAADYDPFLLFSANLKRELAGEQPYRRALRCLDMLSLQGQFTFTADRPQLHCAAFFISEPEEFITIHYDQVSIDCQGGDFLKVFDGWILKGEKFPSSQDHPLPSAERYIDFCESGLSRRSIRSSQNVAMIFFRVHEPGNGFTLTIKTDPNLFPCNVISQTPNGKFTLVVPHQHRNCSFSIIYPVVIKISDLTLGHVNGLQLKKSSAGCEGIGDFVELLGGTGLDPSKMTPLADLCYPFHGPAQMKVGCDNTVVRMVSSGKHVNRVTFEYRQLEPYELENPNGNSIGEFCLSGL
Sequence of Cytochrome P450 3A4 (P08684 whole entry, the tested form may be a part): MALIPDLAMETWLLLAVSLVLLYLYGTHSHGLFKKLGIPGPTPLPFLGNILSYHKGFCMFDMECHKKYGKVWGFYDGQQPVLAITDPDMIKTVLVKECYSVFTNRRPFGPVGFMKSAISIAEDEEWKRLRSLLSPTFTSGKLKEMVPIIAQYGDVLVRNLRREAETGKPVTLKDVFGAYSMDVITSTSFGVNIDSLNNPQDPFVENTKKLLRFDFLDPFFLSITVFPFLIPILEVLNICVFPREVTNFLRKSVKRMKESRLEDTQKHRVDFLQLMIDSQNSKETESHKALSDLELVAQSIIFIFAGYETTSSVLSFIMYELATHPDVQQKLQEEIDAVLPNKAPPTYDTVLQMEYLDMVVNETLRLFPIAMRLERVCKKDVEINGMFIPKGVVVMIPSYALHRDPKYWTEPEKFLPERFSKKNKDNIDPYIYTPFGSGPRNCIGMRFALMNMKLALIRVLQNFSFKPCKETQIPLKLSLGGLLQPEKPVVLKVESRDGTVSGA
Sequence of Phospholipase D1 (Q13393 whole entry): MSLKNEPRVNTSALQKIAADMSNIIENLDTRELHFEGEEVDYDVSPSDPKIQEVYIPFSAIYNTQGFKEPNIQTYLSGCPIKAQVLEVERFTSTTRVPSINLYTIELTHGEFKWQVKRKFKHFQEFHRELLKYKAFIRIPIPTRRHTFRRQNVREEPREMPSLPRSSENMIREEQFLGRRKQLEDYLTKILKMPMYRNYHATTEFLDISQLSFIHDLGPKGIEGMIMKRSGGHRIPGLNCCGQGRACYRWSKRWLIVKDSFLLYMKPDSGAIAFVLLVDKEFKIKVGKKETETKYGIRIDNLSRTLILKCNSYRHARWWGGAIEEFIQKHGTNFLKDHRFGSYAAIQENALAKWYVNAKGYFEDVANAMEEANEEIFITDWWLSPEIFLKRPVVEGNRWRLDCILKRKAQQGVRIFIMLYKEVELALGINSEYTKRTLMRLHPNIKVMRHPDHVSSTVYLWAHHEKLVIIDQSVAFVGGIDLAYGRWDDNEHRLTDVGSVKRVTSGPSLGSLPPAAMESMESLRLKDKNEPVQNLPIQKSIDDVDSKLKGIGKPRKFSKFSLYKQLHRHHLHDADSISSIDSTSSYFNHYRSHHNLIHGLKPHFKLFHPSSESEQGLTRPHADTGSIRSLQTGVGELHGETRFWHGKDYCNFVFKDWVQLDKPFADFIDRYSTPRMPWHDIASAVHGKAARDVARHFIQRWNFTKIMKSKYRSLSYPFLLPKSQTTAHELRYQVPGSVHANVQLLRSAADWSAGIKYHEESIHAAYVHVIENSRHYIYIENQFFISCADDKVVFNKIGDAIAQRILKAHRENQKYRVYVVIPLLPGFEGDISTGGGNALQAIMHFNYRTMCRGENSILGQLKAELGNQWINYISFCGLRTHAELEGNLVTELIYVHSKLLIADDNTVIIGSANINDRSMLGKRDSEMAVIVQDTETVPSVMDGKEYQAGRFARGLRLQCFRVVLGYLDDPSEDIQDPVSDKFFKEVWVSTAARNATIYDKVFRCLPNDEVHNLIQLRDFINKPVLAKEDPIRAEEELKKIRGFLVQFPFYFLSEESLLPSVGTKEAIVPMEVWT
Sequence of Phospholipase D2 (O14939 whole entry): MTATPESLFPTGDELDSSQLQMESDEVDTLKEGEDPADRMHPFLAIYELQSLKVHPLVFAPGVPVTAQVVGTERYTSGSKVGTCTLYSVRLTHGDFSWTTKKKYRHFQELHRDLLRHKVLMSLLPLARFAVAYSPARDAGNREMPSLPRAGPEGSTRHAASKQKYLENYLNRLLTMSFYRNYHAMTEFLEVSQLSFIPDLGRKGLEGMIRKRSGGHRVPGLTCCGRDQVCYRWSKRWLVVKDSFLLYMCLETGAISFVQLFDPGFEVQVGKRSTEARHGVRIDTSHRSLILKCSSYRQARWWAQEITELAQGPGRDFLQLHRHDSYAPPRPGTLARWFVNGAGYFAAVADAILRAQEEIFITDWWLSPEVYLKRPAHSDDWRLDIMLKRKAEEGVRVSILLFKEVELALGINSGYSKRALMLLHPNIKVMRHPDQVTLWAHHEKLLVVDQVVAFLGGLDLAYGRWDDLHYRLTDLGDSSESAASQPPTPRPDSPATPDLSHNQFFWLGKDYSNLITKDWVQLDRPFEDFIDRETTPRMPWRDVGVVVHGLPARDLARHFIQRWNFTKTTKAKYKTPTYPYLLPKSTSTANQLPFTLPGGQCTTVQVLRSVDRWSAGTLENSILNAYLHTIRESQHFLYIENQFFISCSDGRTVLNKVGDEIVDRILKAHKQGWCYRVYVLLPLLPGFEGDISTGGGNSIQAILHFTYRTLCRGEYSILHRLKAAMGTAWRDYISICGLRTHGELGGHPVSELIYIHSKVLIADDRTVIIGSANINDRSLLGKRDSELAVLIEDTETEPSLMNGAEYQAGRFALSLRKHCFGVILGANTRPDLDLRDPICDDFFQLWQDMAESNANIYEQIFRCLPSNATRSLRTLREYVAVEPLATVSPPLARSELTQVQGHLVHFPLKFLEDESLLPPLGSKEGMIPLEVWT
Sequence of Dual specificity protein phosphatase 3 (P51452 whole entry): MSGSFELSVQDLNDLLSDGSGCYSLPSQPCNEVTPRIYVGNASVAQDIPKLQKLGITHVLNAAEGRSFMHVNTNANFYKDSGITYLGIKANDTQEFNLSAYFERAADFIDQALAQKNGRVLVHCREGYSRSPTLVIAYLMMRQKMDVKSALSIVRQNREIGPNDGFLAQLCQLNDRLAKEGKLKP
Sequence of Glycogen synthase kinase-3 beta (P49841 whole entry): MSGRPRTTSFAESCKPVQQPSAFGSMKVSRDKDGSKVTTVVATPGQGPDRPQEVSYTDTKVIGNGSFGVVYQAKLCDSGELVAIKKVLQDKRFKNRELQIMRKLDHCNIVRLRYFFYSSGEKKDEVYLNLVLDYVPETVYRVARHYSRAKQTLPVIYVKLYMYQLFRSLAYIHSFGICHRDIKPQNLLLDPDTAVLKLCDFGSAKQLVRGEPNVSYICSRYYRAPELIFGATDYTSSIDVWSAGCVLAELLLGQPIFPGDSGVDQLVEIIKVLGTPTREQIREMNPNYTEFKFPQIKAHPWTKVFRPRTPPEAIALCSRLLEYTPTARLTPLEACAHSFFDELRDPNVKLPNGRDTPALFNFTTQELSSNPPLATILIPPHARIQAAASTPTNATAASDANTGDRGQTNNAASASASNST
Sequence of Serine/threonine-protein kinase pim-1 (P11309 whole entry): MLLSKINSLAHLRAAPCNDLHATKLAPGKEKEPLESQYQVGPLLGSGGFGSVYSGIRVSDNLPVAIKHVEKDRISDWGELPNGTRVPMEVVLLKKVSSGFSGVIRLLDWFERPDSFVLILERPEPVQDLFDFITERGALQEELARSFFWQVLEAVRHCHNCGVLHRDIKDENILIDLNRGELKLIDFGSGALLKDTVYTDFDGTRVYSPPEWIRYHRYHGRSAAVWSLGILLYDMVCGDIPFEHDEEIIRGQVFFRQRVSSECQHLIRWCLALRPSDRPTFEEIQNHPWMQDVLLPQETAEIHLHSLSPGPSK

Oc1ncccc1-c1nc2ccccc2n1Cc1cccc(Cl)c1
active: AC50 [1] 5.23 µM

COc1ccccc1N1CCN(C(=O)c2ccc([N+](=O)[O-])o2)CC1
active: EC50 [2] 24.3 µM | EC50 [3] 40.5 µM

C[C@@H](CN1CCC(n2c(=O)[nH]c3ccc(F)cc32)CC1)NC(=O)c1ccc(F)cc1
active: IC50 [4] 0.002 µM | IC50 [5] 0.3 µM

CC(C)(C)Oc1cc(-c2ccncc2)cc2[nH]nc(N)c12
active: Ki [6] 0.251 µM | Ki [7] 0.00251 µM | Ki [8] 0.398 µM | Ki [9] 0.158 µM | Ki [10] 0.631 µM | Ki [11] 0.0126 µM | Ki [12] 0.251 µM | Ki [13] 1.58 µM

Cc1ccccc1C(=O)N1CCN(c2ccc(NC(=O)c3ccc([N+](=O)[O-])o3)cc2)CC1
active: AC50 [14] 20.5 µM | AC50 [15] 6.2 µM | AC50 [16] 1.8 µM | AC50 [17] 9.76 µM | AC50 [18] > 35 µM | EC50 [19] 3.14 µM | EC50 [20] 3.84 µM | AC50 [21] 0.864 µM | AC50 [22] > 35 µM

Cc1c(NC(=O)c2cc(-n3cnnc3)ccc2Cl)cccc1-c1nc2ccccc2s1
active: IC50 [23] 18.3 µM

CCCCC1(C)OC(=O)C(=Cc2ccc(N(CC)CC)cc2)C(=O)O1 (stereo not drawn)
active: EC50 [26] 7.59 µM
inconclusive: AC50 [24] 0.126 µM | AC50 [28]
> 300 µM (not active): EC50 [25] | EC50 [27]
